According to patent publication USRE40594E1, “Inhibitors of the bitter taste response” (Mount Sinai School of Medicine of New York University, priority 1998, dated 2008):
Entries after “also recorded” stand apart in the source; their conditions may differ.

Tested on: bovine taste receptor cell membranes (taste receptors) with transducin
Test: G protein activation assay (trypsin sensitivity): activation of transducin by bitter tastant plus taste membranes
Type: biochemical, Bovine (Bos primigenius)
Description: Taste receptor is contacted with gustducin or transducin and tastant, in the presence or absence of test inhibitor, under conditions suitable for activation of the G-protein present. […] In specific non-limiting embodiments, a subunits of transducin or gustducin may be combined with βγ subunits prior to this step, as set forth above. To the reaction mixture comprising taste receptors and gustducin or transducin, test inhibitor and/or bitter tastant may be added, and the resulting solution incubated to permit interaction of the elements.
In preferred embodiments, activation is assessed by a trypsin digestion assay. […] In a specific, non-limiting example, to perform a trypsin digestion assay according to the invention, TPCK-treated trypsin (1:25 trypsin to total protein in the reaction mixture) may be added, and the digestion may be performed at room temperature for about 15 minutes and stopped by adding soybean trypsin inhibitor (6:1 mol/mol inhibitor to trypsin). […] The separated polypeptides may then be transferred by electro-blotter to a poly (vinylidene difluoride) membrane blocked by the addition of 5% BLOTTO [50 mM Tris-HCI, pH 7.4/100 mM NaCl/5% nonfat dry milk], (30 min). G-protein peptides may then be visualized by binding of antibody directed toward transducin or gustducin, followed, for example, by binding of a detectably labeled secondary antibody. If a horseradish peroxidase-labeled secondary antibody is used, binding may be visualized by developing with bicinchoninic acid staining reagents and exposure to x-ray film.
G Protein Activation Assays. Bovine (Bos primigenius) tongues were collected fresh from a local slaughterhouse and transported on ice to the laboratory. Circumvallate papillae were hand dissected, frozen in liquid nitrogen, and stored at −80° C. until use. […] The pelleted membranes were rinsed twice, resuspended in homogenization buffer lacking protease inhibitors, and further homogenized by 20 passages through a 25-gauge needle. Aliquots were either flash frozen or stored on ice until use. […] The separated polypeptides were transferred by electro-blotter to a poly (vinylidene difluoride) membrane, which was blocked by the addition of 5% BLOTTO [50 mM Tris-HCI, pH 7.4/100 mM NaCl/5% nonfat dry milk], (30 min), then transducin peptides were visualized by binding of transducin antiserum and horseradish peroxidase-labeled goat anti-rabbit secondary antibody, followed by developing with bicinchoninic acid staining reagents from Bio-Rad and exposure to x-ray film.
Chemicals. All bitter tastant and buffer chemicals were of the highest purity available and were purchased either from Sigma or Boehringer Mannheim, unless otherwise noted. […] The rabbit polyclonal antitransducin antibody was a kind gift of Mel Simon and John Watson (California Institute of Technology, Pasadena, Calif.).

With Nc1ncnc2c1ncn2[C@@H]1O[C@H](COP(=O)(O)O)[C@@H](O)[C@H]1O [AMP, adenosine 5′ monophosphate] the “inhibition of activation of transducin by QUI plus bovine taste membranes” value (1.0 mM QUI, AMP 0.01-2.5 mM, FIG. 1B) was “inhibit; also recorded: inhibited in a dose-dependent fashion”, the “inhibition of taste membrane-dependent activation of transducin by atropine hydrochloride” value (AMP 2.5 mM, ATR 5.0 mM, FIG. 1C) was “inhibits; also recorded: inhibitory effect” and the “inhibition of taste membrane-dependent activation of transducin by DEN” value (AMP 2.5 mM, DEN 5.0 mM, FIG. 1C) was “inhibits; also recorded: inhibitory effect”. The “inhibition of taste membrane-dependent activation of transducin by nicotine hemisulfate” value (AMP 2.5 mM, NIC 5.0 mM, FIG. 1C) was “inhibits; also recorded: inhibitory effect”, the “inhibition of taste membrane-dependent activation of transducin by QUI” value (AMP 2.5 mM, QUI 1.0 mM, FIG. 1C) was “inhibits; also recorded: inhibitory effect” and the “inhibition of taste membrane-dependent activation of transducin by strychnine hydrochloride” value (AMP 2.5 mM, STR 5.0 mM, FIG. 1C) was “inhibits; also recorded: inhibitory effect”. For the same molecule, the “inhibition of in vitro activation of transducin (G-protein) by taste membranes plus bitter compounds, summary statement” value (DEN, QUI and other bitter compounds, concentrations not given) was “inhibits”, the “inhibition of taste membrane activation of transducin by caffeic acid” value (concentrations not given) was “inhibitory effect” and the “inhibition of taste membrane activation of transducin by naringin” value (concentrations not given) was “inhibitory effect”. The “inhibition of taste membrane activation of transducin by quinacrine” value (concentrations not given) was “inhibitory effect”, the “inhibition of taste membrane activation of transducin by sparteine” value (concentrations not given) was “inhibitory effect” and the “inhibition of activation of transducin by DEN plus bovine taste receptor membranes” value (inhibitor 0.25, 0.5, 1.25, 2.5, 5.0 mM, DEN 5.0 mM, shift from 32-kDa to 23-kDa fragments, FIG. 1A/1E) was “inhibit; also recorded: inhibited in a dose-dependent fashion”.
